Experimental data from patent US20150302140A1, “IN SILICO IDENTIFICATION OF CANCER MOLECULAR SIGNALING PATHWAYS AND DRUG CANDIDATES” (H. LEE MOFFITT CANCER CENTER AND RESEARCH INSTITUTE, INC., priority 2012, published 2015).
Entries after “also recorded” stand apart in the source; their conditions may differ. Where two headings read alike, the source gives them in different places.

How the values were obtained:
Assay type in all cases: cell-based
A2780S = test: MTS cell proliferation/viability assay, 72 hours drug exposure; settings: Homo sapiens, log10 of IC50, uM
Source text: (§1) Ovarian cancer cell lines were either obtained from the European Collection of Cell Cultures, Salisbury, England (A2780S), or were kind gifts from Dr. Patricia Kruk, Department of Pathology, College of Medicine, University of South Florida, Tampa, Fla., and Susan Murphy, PhD, Dept of OB/GYN, Division of GYN Oncology, Duke University, Durham, N.C. (HeyA8, OVCAR2, OVCAR8, and OVCA420). Cell lines were maintained in RPMI-1640 (Invitrogen; Carlsbad, Calif.) supplemented with 10% fetal bovine serum (Fisher Scientific; Pittsburgh, Pa.), 1% sodium pyruvate, 1% penicillin/streptomycin, and 1% nonessential amino acids (HyClone; Hudson, N.H.). Mycoplasma testing was performed every 6 months following manufacturer's protocol (Lonza, Rockland, Me.).
(§2) The MTS assay was used to assess viability of the OVCA cell lines. For the assays, 3-5×10^4 cells in 100 μL were plated to each well of a 96-well plate and allowed to adhere overnight at 37° C. and 5% CO2. The following day, cells were incubated with increasing concentrations of drug for 72 hours. Cell viability was analyzed using the CellTiter96® MTS assay kit (Promega, Madison, Wis.). Three replicate wells were used for each drug concentration, and an additional three control wells received a diluent control without drug. After drug incubation, the optical density of each well was read at 490 nm using a SpectraMax 190 microplate reader (Molecular Devices Inc., Sunnyvale, Calif.). Percent cell survival was expressed as (control-treated)/(control-blank)×100. All experiments were performed three times, or the minimum number of times to ensure reproducibility and accuracy of the results.

OVCA8 = test: as above; settings: log10 of IC50, uM
Source text: as §1, §2

OVCA420 = test: as above; settings: OVCA 420, log10 of IC50, uM
Source text: as §1, §2

HEYA8 = test: as above; settings: HEY A8, log10 of IC50, uM
Source text: as §1, §2

OVCA2 = test: as above; settings: log10 of IC50, uM
Source text: as §1, §2

five OVCA cell lines = test: MTS assay, summary over five OVCA cell lines; settings: for IC50: five OVCA cell lines, 72 hours, MTS
Source text: as §1, §2
The cytotoxic effects of continuous exposure to dasatinib and artesunate were assessed for five OVCA cell lines at 72 hours using the MTS assay (Table 5).

HeyA8 OVCA cells = test: In vitro scratch assay (cell migration); settings: HeyA8, 25 mM or 50 mM artesunate, imaged days 0-2; DMSO vehicle closed gap within 2 days
Method: The effects of pathway inhibition on OVCA cell metastatic properties were investigated using the in vitro scratch assay. HeyA8 OVCA cells were maintained in RPMI 1640 medium (Invitrogen) supplemented with 10% fetal bovine serum (FBS; Fisher Scientific, Pittsburgh, Pa.), 1% sodiumpyruvate, 1% penicillin/streptomycin (Cellgro, Manassas, Va.), and 1% nonessential amino acids (HyClone, Hudson, N.H.). Monolayers, 75-80% confluent, were cultured in serum-free media for 4 hours and then mechanically disrupted to create a wound using a 1 mL pipette tip. Culture plates were washed twice with serum-free media to remove floating cells and then incubated with media containing 10% FBS and either vehicle (dimethylsulfoxide [DMSO]) or drug. The DMSO concentration was maintained below 0.5% so as not to influence cell growth or migration. The underside of the culture plate by the wound area was marked with a Sharpie for reference, and wounds were imaged by phase-contrast microscopy on days 0, 1, and 2.

HeyA8 OVCA cell = test: HeyA8 cell proliferation under artesunate

**Q.** What does the source list for `C[C@H]1[C@H](OC(=O)CCC(=O)O)O[C@@H]2O[C@@]3(C)CC[C@H]4[C@H](C)CC[C@@H]1[C@@]24OO3` [Artesunate]?
**A.** IC50 (A2780S): 1.23 µM; IC50 (OVCA8): 5.9 µM; IC50 (OVCA420): 19.3 µM; IC50 (HEYA8): 7.92 µM; IC50 (OVCA2): 1.31 µM; IC50 (five OVCA cell lines; log10 value, read-out: median IC50 (log 10) (converted)): 4290 nM; IC50 (five OVCA cell lines; log10 values, read-out: range of IC50 (log 10) (converted)): 88.2 to 1290 nM; IC50 (five OVCA cell lines; read-out: median IC50): 7130 nM; IC50 (five OVCA cell lines; read-out: range of IC50): 1230 to 19300 nM; anti-proliferative activity against a panel of OVCA cells (five OVCA cell lines; panel of OVCA cells): anti-proliferative activity; ability of cells to migrate into the denuded area / fill in the gap of a scratch test (HeyA8 OVCA cells): impaired the ability of the cells to migrate; also recorded: impaired in their ability to fill in the gap; decrease of HeyA8 OVCA cell proliferation (HeyA8 OVCA cell; 25 mM artesunate): approximately 42%; decrease of HeyA8 OVCA cell proliferation (HeyA8 OVCA cell; 50 mM artesunate): ~64%

**Q.** How did the IC50 (A2780S) turn out when `Cc1nc(Nc2ncc(C(=O)Nc3c(C)cccc3Cl)s2)cc(N2CCN(CCO)CC2)n1` [Dasatinib] was run?
**A.** Its IC50 is 0.918 µM.

**Q.** What about the IC50 (OVCA8) of the same compound?
**A.** Its IC50 is 0.37 µM.

**Q.** What about the IC50 (OVCA420) of the same compound?
**A.** The IC50 was 0.431 µM.

**Q.** What about the IC50 (HEYA8) of the same compound?
**A.** The IC50 was 0.215 µM.

**Q.** And the IC50 (OVCA2)?
**A.** The IC50 was 0.953 µM.

**Q.** And the IC50 (five OVCA cell lines; read-out: mean IC50)?
**A.** Its IC50 is 577 nM.

**Q.** And the IC50 (five OVCA cell lines; read-out: range of IC50)?
**A.** The IC50 was 214 to 953 nM.
